From patent US10294202B2, “Pyrrolidinones as herbicides” (FMC Corporation, priority 2013, dated 2019)

Key:
[1] = system: barley, winter; experiment: Test D pre-/postemergence herbicide test; assay type: in vivo, Hordeum vulgare; conditions: for Plant response rating: Barley, Winter, scale 0 to 100; for Plant response rating, Barley, Winter: scale 0 to 100 (0 no effect, 100 complete control)
Method in brief: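 Visual injury score, 0 (no effect) to 100 (complete control), taken 7–21 d post-treatment against untreated controls. Application was preemergence in silt loam and postemergence at 1- to 4-leaf stage, using a surfactant-containing non-phytotoxic solvent formulation.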

[2] = system: galium; experiment: Test D pre-/postemergence herbicide test; assay type: in vivo, Galium aparine; conditions: for Plant response rating: Galium, scale 0 to 100; for Plant response rating, Galium: scale 0 to 100 (0 no effect, 100 complete control)
Excerpt: Seeds of plant species selected from bluegrass (annual bluegrass, Poa annua), blackgrass (Alopecurus myosuroides), canarygrass (littleseed canarygrass, Phalaris minor), chickweed (common chickweed, Stellaria media), galium (catchweed bedstraw, Galium aparine), bromegrass, downy (downy bromegrass, Bromus tectorum), field poppy (Papaver rhoeas), field violet (Viola arvensis), foxtail, green (green foxtail, Setaria viridis), deadnettle (henbit deadnettle, Lamium amplexicaule), ryegrass, Italian (Italian ryegrass, Lolium multiflorum), kochia (Kochia scoparia), lambsquarters (Chenopodium album), oilseed rape (Brassica napus), pigweed (Amaranthus retroflexus), chamomile (scentless chamomile, Matricaria inodora), Russian thistle (Salsola kali), speedwell (bird's-eye speedwell, Veronica persica), barley, spring (spring barley, Hordeum vulgare), wheat, spring (spring wheat, Triticum aestivum), buckwheat, wild (wild buckwheat, Polygonum convolvulus), mustard, wild (wild mustard, Sinapis arvensis), oat, wild (wild oat, Avena fatua), radish, wild (wild radish, Raphanus raphanistrum), […]), barley, winter (winter barley, Hordeum vulgare), and wheat, winter (winter wheat, Triticum aestivum) were planted into a silt loam soil and treated preemergence with test chemicals formulated in a non-phytotoxic solvent mixture which included a surfactant. At the same time, these species were planted in pots containing Redi-Earth® planting medium (Scotts Company, 14111 Scottslawn Road, Marysville, Ohio 43041) comprising spaghnum peat moss, vermiculite, wetting agent and starter nutrients and treated with postemergence applications of the test chemicals formulated in the same manner. Plants ranged in height from 2 to 18 cm (1- to 4-leaf stage). Treated plants and controls were maintained in a controlled growth environment for 7 to 21 days after which time all species were compared to controls and visually evaluated. Plant response ratings, summarized in Table D, are based on a scale of 0 to 100 where 0 is no effect and 100 is complete control. A dash (-) response means no test result.

[3] = system: surinam grass; experiment: Test C pre-/postemergence herbicide test; assay type: in vivo, Brachiaria decumbens
Excerpt: Seeds of plant species selected from blackgrass (Alopecurus myosuroides), ryegrass, Italian (Italian ryegrass, Lolium multiflorum), wheat (winter wheat, Triticum aestivum), galium (catchweed bedstraw, Galium aparine), corn (Zea mays), crabgrass, large (large crabgrass, Digitaria sanguinalis), foxtail, giant (giant foxtail, Setaria faberii), johnsongrass (Sorghum halepense), lambsquarters (Chenopodium album), morningglory (Ipomoea coccinea), nutsedge, yellow (yellow nutsedge, Cyperus esculentus), pigweed (Amaranthus retroflexus), ragweed (common ragweed, Ambrosia elatior), soybean (Glycine max), barnyardgrass (Echinochloa crus-galli), oilseed rape (Brassica napus), waterhemp (common waterhemp, Amaranthus rudis), kochia (Kochia scoparia), oat, wild (wild oat, Avena fatua), surinam grass (Brachiaria decumbens), foxtail, green (green foxtail, Setaria viridis), goosegrass (Eleusine indica), bromegrass, downy (downy bromegrass, Bromus tectorum), nightshade (eastern black nightshade, Solanum ptycanthum), cocklebur (common cocklebur, Xanthium strumarium), cupgrass, woolly (woolly cupgrass, Eriochloa villosa), bermudagrass (Cynodon dactylon), sunflower, (common oilseed sunflower, Helianthus annuus), Russian thistle (Salsola kali) and velvetleaf (Abutilon theophrasti) were planted into a blend of loam soil and sand and treated preemergence with test chemicals formulated in a non-phytotoxic solvent mixture which included a surfactant. At the same time, plants selected from these crop and weed species and also barley (winter barley, Hordeum vulgare), […]), chickweed (common chickweed, Stellaria media), deadnettle (henbit deadnettle, Lamium amplexicaule), and canarygrass (littleseed canarygrass, Phalaris minor) were planted in pots containing Redi-Earth® planting medium (Scotts Company, 14111 Scottslawn Road, Marysville, Ohio 43041) comprising spaghnum peat moss, vermiculite, wetting agent and starter nutrients and treated with postemergence applications of test chemicals formulated in the same manner. Plants ranged in height from 2 to 18 cm (1- to 4-leaf stage) for postemergence treatments. Treated plants and controls were maintained in a greenhouse for 13 to 15 days, after which time all species were compared to controls and visually evaluated. Plant response ratings, summarized in Table C, are based on a scale of 0 to 100 where 0 is no effect and 100 is complete control. A dash (-) response means no test result.

[4] = Preemergence, 62 g ai/ha, scale 0 to 100
[5] = Preemergence, 125 g ai/ha, scale 0 to 100 (0 no effect, 100 complete control)
[6] = Postemergence, 31 g ai/ha, scale 0 (no effect) to 100 (complete control)
[7] = Postemergence, 62 g ai/ha, scale 0 to 100 (0 no effect, 100 complete control)
[8] = Postemergence, 125 g ai/ha, scale 0 to 100 (0 no effect, 100 complete control)
[9] = Postemergence, 250 g ai/ha, scale 0 to 100 (0 no effect, 100 complete control)

| SMILES | Plant response rating ([1]; Postemergence, 16 g ai/ha) | Plant response rating ([1]; Postemergence, 31 g ai/ha) | Plant response rating ([1]; Postemergence, 62 g ai/ha) | Plant response rating ([1]; Postemergence, 125 g ai/ha) | Plant response rating ([1]; Postemergence, 250 g ai/ha) | Plant response rating, Barley, Winter ([1]; Preemergence, 62 g ai/ha) | Plant response rating, Barley, Winter ([1]; Preemergence, 31 g ai/ha) | Plant response rating ([1]; Preemergence, 125 g ai/ha) | Plant response rating ([1]; Preemergence, 250 g ai/ha) | Plant response rating ([2]; Postemergence, 31 g ai/ha) | Plant response rating ([2]; Postemergence, 62 g ai/ha) | Plant response rating ([2]; Postemergence, 125 g ai/ha) | Plant response rating, Galium ([2]; Preemergence, 62 g ai/ha) | Plant response rating, Galium ([2]; Preemergence, 31 g ai/ha) | Plant response rating ([2]; Preemergence, 125 g ai/ha) | Plant response rating ([2]; Preemergence, 250 g ai/ha) | Plant response rating, Surinam Grass [3, 4] | Plant response rating, Surinam Grass [3, 5] | Plant response rating, Surinam Grass [3, 6] | Plant response rating, Surinam Grass [3, 7] | also measured |
| --- | --- | --- | --- | --- | --- | --- | --- | --- | --- | --- | --- | --- | --- | --- | --- | --- | --- | --- | --- | --- | --- |
| O=C1NCC(c2ccc(F)c(F)c2)C1C(=O)Nc1ccccc1C(F)(F)F (racemic) [Compound 6] | 0 | 0 | 0 | 0 | 0 | 0 | 0 | 0 | 20 | 0 | 0 | 0 | 50 | 0 | 100 | 100 |  |  |  |  | Plant response rating, Barley, Winter ([1]; Preemergence, 16 g ai/ha): 0; Plant response rating ([2]; Postemergence, 16 g ai/ha): 0; Plant response rating ([2]; Postemergence, 250 g ai/ha): 0; Plant response rating, Galium ([2]; Preemergence, 16 g ai/ha): 0 |
| O=C1NCC(c2ccc(F)c(C(F)(F)F)c2)C1C(=O)Nc1cccc(F)c1F (racemic) [Compound 77] |  |  |  |  |  | 0 | 0 | 45 | 55 |  |  |  | 55 | 35 | 85 | 85 |  |  |  |  |  |
| O=C1NCCC1C(=O)N(c1ccc(F)c(F)c1)c1ccccc1F (centres unmarked) [Compound 5, N-(3,4-difluorophenyl)-N-(2-fluorophenyl)-2-oxo-3-pyrrolidinecarboxamide] |  |  |  |  |  |  |  |  |  |  |  |  |  |  |  |  | 85 | 95 |  |  |  |
| O=C1NCC(c2cc(F)c(F)c(F)c2)C1C(=O)Nc1cccc(F)c1F (centres unmarked) [Compound 48] |  |  |  |  |  |  |  |  |  |  |  |  |  |  |  |  | 75 | 85 | 5 | 25 | Plant response rating, Surinam Grass ([3]; Postemergence, 16 g ai/ha, scale 0 to 100 (0 no effect, 100 complete control)): 0; Plant response rating, Surinam Grass [3, 8]: 25; Plant response rating, Surinam Grass ([3]; Preemergence, 16 g ai/ha, scale 0 to 100): 10 |
| O=C1NCC(c2cc(F)c(F)cc2F)C1C(=O)Nc1cccc(F)c1F (centres unmarked) [Compound 50] | 0 | 0 | 0 | 0 |  | 0 | 0 | 0 |  | 0 | 0 | 0 | 0 | 0 | 0 |  |  |  | 5 | 5 | Plant response rating, Surinam Grass [3, 8]: 5; Plant response rating, Surinam Grass [3, 9]: 15; Plant response rating, Barley, Winter ([1]; Preemergence, 16 g ai/ha): 0; Plant response rating ([2]; Postemergence, 16 g ai/ha): 0; Plant response rating, Galium ([2]; Preemergence, 16 g ai/ha): 0 |
| O=C1NCC(c2ccc(Cl)c(F)c2)C1C(=O)Nc1cccc(F)c1F (centres unmarked) [Compound 52] | 0 | 0 | 0 | 0 | 0 | 0 | 0 | 0 | 25 | 0 | 0 | 25 | 0 | 0 | 0 | 20 | 35 | 45 | 0 | 5 | Plant response rating, Surinam Grass [3, 9]: 30; Plant response rating, Barley, Winter ([1]; Preemergence, 16 g ai/ha): 0; Plant response rating ([2]; Postemergence, 16 g ai/ha): 0; Plant response rating ([2]; Postemergence, 250 g ai/ha): 35; Plant response rating, Galium ([2]; Preemergence, 16 g ai/ha): 0 |
| O=C1NCC(c2ccc(F)c(Cl)c2)C1C(=O)Nc1ccccc1F (centres unmarked) [Compound 60] |  |  |  |  |  |  |  |  |  |  |  |  |  |  |  |  | 70 | 70 | 0 | 0 | Plant response rating, Surinam Grass [3, 8]: 0 |
| O=C1NCC(c2cccc(OC(F)(F)F)c2)C1C(=O)Nc1ccccc1F (centres unmarked) [Compound 69] |  |  |  |  |  |  |  |  |  |  |  |  |  |  |  |  | 75 | 85 |  |  | Surinam Grass plant response rating ([3]; Preemergence, 31 g ai/ha, scale 0 to 100, 0 is no effect and 100 is complete control): 60; Plant response rating (scale of 0 to 100), Surinam Grass ([3]; Preemergence, 250 g ai/ha): 85 |
| O=C1NCC(c2ccc(C(F)(F)F)cc2)C1C(=O)Nc1ccccc1F (centres unmarked) [Compound 231] |  | 0 | 0 | 0 | 0 | 0 | 0 |  | 20 | 40 | 45 | 55 | 40 | 20 |  | 40 |  |  |  |  | Plant response rating, Barley, Winter ([1]; Preemergence, 125 g ai/ha): 0; Plant response rating ([2]; Postemergence, 250 g ai/ha): 55; Plant response rating, Galium ([2]; Preemergence, 125 g ai/ha): 35 |
